# Reference: patent US7405181B2, “Bio-fertilizer composition for promoting growth or orchid plants and application” (National Taiwan University, priority 2005, dated 2008)
# What was measured:
# [1] = test system: Doritaenopsis casablanca Joy × Phalaenopsis taida Pinlong; experiment: Flowering rates with bio-fertilizer and plant growth substance; format: in vivo; details: room temperature
# Description: (§1) Phalaenopsis amabili and Doritaenopsis casablanca Joy×Phalaenopsis taida Pinlong are treated with either bio-fertilizer composition Mb or plant growth regulators Gibberellic Acid (GA3), or both. The flowering rates are observed after incubation.
# Phalaenopsis amabilis = experiment: as above; format: in vivo; details: room temperature
# Description: as §1
compound,measurement,setting,value
"C=C1C[C@]23C[C@@]1(O)CC[C@H]2[C@@]12C=C[C@H](O)[C@@](C)(C(=O)O1)[C@H]2[C@@H]3C(=O)O [NM + GA3, Gibberellic Acid]",flowering rate,[1],71%
same,flowering rate,Phalaenopsis amabilis,75%
